According to US20130251678A1, “BID DOSAGE REGIMEN FOR DEB025” (NOVARTIS AG, priority 2010, published 2013):

How the values were obtained:
Format in all cases: in vivo, human
HCV Genotype 1 [1] = test: Clinical study in HCV Genotype 1 non responder patients: decline in HCV RNA from baseline; conditions: with peg-IFNα2a plus RBV
Source text: HCV RNA levels can be measured using commercially available methods. As used herein, LOD means limit of detection and LOQ means limit of quantification of HCV RNA levels. For example, when using the COBAS® TaqMan® HCV Test, v2.0 (Roche Diagnostics) for assessment of HCV RNA levels, LOQ of 25 IU/ml (1.398 log10) and LOD of 10 IU/ml (1 log10) have been reported.
The efficacy of the therapy regimen may be monitored using standard protocols. Treatment may be followed by determinations of HCV in serum and measurement of serum ALT (alanine-aminotransferase) levels. For example, the patients may be assessed for the presence of HCV RNA in their plasma. HCV RNA (IU/mL) can be measured at regular intervals during the treatment, e.g., at Day 1 (pre-dose and 4, 8, and 12 hours post-dose) and pre-dose at Day 2, Day 3, Day 8, Day 15, Day 29, and at Week 12, Week 24, Week 36, Week 48, Week 72 (when applicable), and at follow up. In addition, the HCV strains in the patient can be sequenced and assessed for identification of mutations selecting for resistance.
In this hard to treat patient population, the 400 mg BID dose provided greater decline in HCV RNA from baseline (−1.41 log10 IU/ml) than the 800 mg QD dose (−0.70 log10 IU/ml). […]

[2] = Observed alisporivir Cmin in the HCV Genotype 1 non responder patient study; conditions: first week of treatment
Source text: As used herein, AUC refers to Area Under the Curve in [hr ng/mL] or area under the concentration vs time curve indicating the integrated quantity of analyte or drug (the serum concentration curve) after dosing; Cmax refers to the maximum concentration of the analyte or drug in [ng/mL] achieved after dosing; Cmin refers to the minimum concentration of the analyte or drug in [ng/mL] achieved after dosing

HCV Genotype 1 [3] = test: Phase 2 study of genotype 1 treatment-naive patients: sustained virologic response (SVR); conditions: 600 mg BID for one week followed by 600 mg QD, 48 week treatment duration, combined with peg-IFNα2a
Source text: The virological response parameters are: rapid virologic response at treatment week 4 (RVR 4) defined by undetectable serum HCV-RNA at treatment week 4; early virological response (EVR), defined by at least 2 log10 IU/mL reduction in HCV-RNA compared to baseline (partial EVR) or undetectable serum HCV-RNA (complete EVR) at treatment week 12; sustained virological response (SVR24), defined as absence of HCV-RNA from serum by a sensitive Polymerase Chain Reaction (PCR) assay 24 weeks following end of therapy or the HCV RNA is undetectable (by LOD) 24 weeks after end of treatment; End of Treatment Response (ETR): HCV RNA undetectable (by LOD) at treatment end (completed or prematurely discontinued).

With `C/C=C/C[C@@H](C)[C@@H](O)[C@H]1C(=O)N[C@@H](CC)C(=O)N(C)[C@H](C)C(=O)N(CC)[C@@H](C(C)C)C(=O)N[C@@H](C(C)C)C(=O)N(C)[C@@H](CC(C)C)C(=O)N[C@@H](C)C(=O)N[C@H](C)C(=O)N(C)[C@@H](CC(C)C)C(=O)N(C)[C@@H](CC(C)C)C(=O)N(C)[C@@H](C(C)C)C(=O)N1C` [alisporivir, Alisporivir] the “decline in HCV RNA from baseline” value (HCV Genotype 1 [1]; 400 mg BID during first week of treatment) was −1.41 log10 IU/ml, the “decline in HCV RNA from baseline” value (HCV Genotype 1 [1]; 800 mg QD during first week of treatment) was −0.70 log10 IU/ml and the “median observed Cmin” value ([2]; 400 mg BID) was 175 ng/mL. The “median observed Cmin” value ([2]; 800 mg QD) was 148 ng/mL and the “rates of achievement of sustained virologic response (SVR) versus peg-IFNα2a” value (HCV Genotype 1 [3]) was “superior”.
